According to patent publication US6235707A, “Anticoagulant peptidyl-arginine aldehyde derivatives” (Gyogyszerkutato Intezet Kft., priority 1996, dated 2001):

What was measured:
[1] = test system: citrate plasma; assay: prothrombin time (PT) plasma clotting test; type: biochemical
Protocol: (§1) Anticoagulant activity (i.e. inhibition of the proteolytic reactions in the process) is measured by anticoagulant tests, e.g. in the thrombin time (TT), activated partial thromboplastin time (APTT) and prothrombin time (PT) tests [E. J. W. Bovie et al., Mayo Clinic Laboratory Manual of Haemostasis; W. B. Saunders Co., Philadelphia (1971)]. Plasma, inhibited in spontaneous coagulation, e.g. citrate-plasma, is made to coagulate and the required coagulation time is measured. Upon the action of anticoagulants the coagulation time is prolonged proportionally to the inhibition of the reaction(s) in the process. The anticoagulant effect can be characterised by the substance concentration required to prolong the coagulation time twofold compared to the control (IC50). The effect of anticoagulants on individual coagulant proteases is measured by the amidolytic method [R. Lottenberg et al., Methods in Enzymol. 80, 341 (1981); G. Cleason, Blood Coagulation and Fibrinolysis 5, 411 (1994)]. The isolated active factor (e.g. thrombin, fXa) and its chromogen or fluorogen peptide-amide substrate are reacted in the presence or absence of the inhibitor, resp. The enzyme inhibiting action is characterised by the inhibitory constant (IC50) measured during amidolysis.
(§2) In the TT test coagulation is initiated by the thrombin added to the citrate plasma. In the system 22 pmol/ml of thrombin is functioning and its inhibition can be measured on the fibrinogen (one of the natural substrates of thrombin) in the presence of plasma components. In the APTT and PT tests the full coagulation process takes place. Depending on the activator fX is activated either by the extrinsic or the intrinsic pathway. The generated fXa activates prothrombin to thrombin which, in turn, triggers plasma coagulation. The coagulation time is prolonged if the enzymes or one of them is inhibited by the inhibitor. In the APTT and PT tests at most 40 pmol/ml Xa can be generated (this is the full amount of factor X present in both systems) while 150 pmol/ml (APTT) and 350 pmol/ml (PT) of thrombin are generated [B. Kaiser et al., Thromb. Res. 65, 157 (1992)].
(§3) The in vitro anticoagulant effects of the compounds of general formula (I) was measured by the prothrombin time (PT), activated partial thromboplastin time (APTT) and thrombin time (TT) tests [D. Bagdy et al., Thromb. Haemost. 67, 325 (1992)]. The fxa-inhibiting effect of the compounds was also determined using the Bz-Ile-Glu-Gly-Arg-pNA chromogen substrate (see method M6).

[2] = target: plasmin (PL) (Homo sapiens, UniProt P00747); assay: fibrin-plate method, plasmin; type: biochemical; details: related to the activity of C1 (1/IC50 = 1)
From the text: (§4) The inhibitory effect of the new compounds of the invention on plasmin (PL) as well as on plasmin formation induced by tissue plasminogen activator (tPA) and urokinase (UK) was examined by the fibrin-plate method [D. Bagdy et al.: Thromb. Haemost. 67, 325 (1992)]. Compounds C1 and C5 served as controls. […] V. Jackson et al.: J. Cardiovasc. Pharmacol. 21, 587 (1993))]. In Table 4 the results obtained with the new compounds 1 and 2 as well as those with controls C1 and C5 are presented as an example.

[3] = target: tissue plasminogen activator (tPA) (Homo sapiens, UniProt P00750); assay: fibrin-plate method, plasmin formation induced by tPA; type: biochemical; details: related to the activity of C1 (1/IC50 = 1)
From the text: as §4

[4] = target: urokinase (UK) (Homo sapiens, UniProt P00749); assay: fibrin-plate method, plasmin formation induced by urokinase; type: biochemical; details: related to the activity of C1 (1/IC50 = 1)
From the text: as §4

[5] = test system: New Zealand white rabbits; assay: ex vivo TT in citrate plasma of rabbits after p.o. dosing; parameters: species or system rabbit; details: p.o. 5 mg/kg, 90 min
Protocol: (§5) The anticoagulant and platelet aggregation inhibiting effect of the compounds of general formula (I) was studied in New Zealand white rabbits ex vivo according to D. Bagdy et al. [Thromb. Haemost. 67, 357 (1992)]. The compounds were dissolved in buffered isotonic saline solution and administered i.v. (0,04-5.0 mg/kg) or by infusion (0.25-5.0 mg/kg/h) or subcutaneously (0.5-6.0 mg/kg) or p.o. (2.5-20 mg/kg). The effect of the compounds was detectable already within 30 minutes following p.o. administration, peak values were attained after 60-180 minutes and the therapeutic level was maintained dose-dependently for 3→6 hours.
(§6) The in vivo effect of ethoxycarbonyl-3-cyclobutyl-D-alanyl-L-prolyl-L-arginine aldehyde (1) is presented in detail in Tables 6 and 7. The corresponding values of C1 are listed as controls. The compound was administered p.o. in doses of 5 mg/kg. The blood samples drawn from the caudal vein in every 30-60 minutes were analysed. The whole blood clotting time (WBCT) and the inhibition of thrombin-induced blood platelet aggregation (PAI) were determined. The activated partial thromboplastin time (APTT) and the thrombin time (TT) in the citrate plasma obtained from the blood sample were also measured. The APTT and TT values are compiled in Table 6 and the WBCT and PAI values in Table 7.

[6] = test system: thrombin-induced blood platelet aggregation; assay: ex vivo inhibition of thrombin-induced blood platelet aggregation (PAI) in rabbits after p.o. dosing; parameters: species or system rabbit; details: p.o. 5 mg/kg
Protocol: as §5, §6

[7] = C. V. Jackson et al. 1993; cited from earlier work
[8] = target: T1, isolated human fXa (Homo sapiens, UniProt P00742); assay: fXa inhibition in solution, amidolytic method on Bz-Ile-Glu-Gly-Arg-pNA chromogen substrate (Method M6); type: biochemical; details: Table 3; isolated human fXa, Bz-Ile-Glu-Gly-Arg-pNA; read-out: B: fXa inhibiting IC50
T1 construct: The isolated active factor (e.g. thrombin, fXa) and its chromogen or fluorogen peptide-amide substrate are reacted; purchased SIGMA
Protocol: as §1, §3
Determination of Factor Xa Inhibition in Solution on a 96-well Microtitre Plate
a) By means of phosphate buffer (0.1M sodium phosphate and 0.05M sodium chloride, pH=7.4) 1.3 E/ml solution is prepared from human factor Xa (SIGMA), and 0.1-1.0-10 and 100 μg/ml solutions from the peptide inhibitors. The Bz-Ile-Glu-Gly-Arg-pNA substrate is used in distilled water solution ([…]).
b) From the control and the peptide inhibitor solutions (3 parallel samples of each concentration) 30-30 μl aliquots are placed into the wells. 30 μl of factor Xa, 90 μl of buffer and 150 μl of substrate are added to the peptide solution and the extinction is determined after 10 min. at 405 nm. Thereafter the steps are the same as in M2/c.

[9] = test system: citrate plasma; assay: activated partial thromboplastin time (APTT) plasma clotting test; type: biochemical; details: Table 3; twofold prolongation compared to control; read-out: A: anticoagulant IC50, APTT
Protocol: as §1, §2, §3

[10] = target: thrombin (Homo sapiens, UniProt P00734); assay: thrombin time (TT) plasma clotting test; type: biochemical; details: Table 3; twofold prolongation compared to control; read-out: A: anticoagulant IC50, TT
Protocol: as §1, §2, §3

[11] = target: T2, clot-bound fXa (Homo sapiens, UniProt P00742); assay: inhibition of plasma clot-bound factor Xa (Methods M1, M2); type: biochemical; details: text b187, well below
T2 construct: from tissue; host or cells: clot of recalcified human platelet-rich plasma
Protocol: Plasma-clot was obtained by recalcificating platelet-rich human plasma, and fibrin gel by clotting human fibrinogen with human thrombin. For the activity measures of fXa and thrombin Z-D-Arg-Gly-Arg-pNA or Tos-Gly-Pro-Arg-pNA substrates were used in agreement with Methods M1-M3.
Preparation of Clots from Human Plasma
a) Platelet-rich plasma is prepared by centrifuging a 9:1 mixture of human blood and 3.8% sodium citrate solution for 5 min. at 240×g.
b) 200 μl platelet-rich plasma and 80 μl 40 mM CaCl2 solution are allowed to stand at room temperature for 1 hour. The thus-formed clot is washed with 6×2 ml of 0.9% NaCl solution with gentle stirring to remove the residual enzymes (thrombin and factor Xa). The washing medium is assayed for thrombin-like activity as follows:
c) To 400 μl of washing medium 100 μl of 1 mM Tos-Gly-Pro-Arg-pNA substrate solution is added, the mixture is incubated for 30 min at 37° C., then the reaction is stopped with 100 μl of 50% acetic acid. From this mixture 150 μl aliquots are applied onto a 96-well microtitre plate and the extinction coefficients are measured at 405 nm (ELISA READER SLT Laborinstrument GmbH, Austria). […]
c) From each reaction vessel 150 μl is applied onto a 96 well microtitre plate and extinction coefficients are measured at 405 nm (ELISA READER SLT Laborinstrument GmbH, Austria). […]

T2 sequence (P00742 235-488 limits assumed): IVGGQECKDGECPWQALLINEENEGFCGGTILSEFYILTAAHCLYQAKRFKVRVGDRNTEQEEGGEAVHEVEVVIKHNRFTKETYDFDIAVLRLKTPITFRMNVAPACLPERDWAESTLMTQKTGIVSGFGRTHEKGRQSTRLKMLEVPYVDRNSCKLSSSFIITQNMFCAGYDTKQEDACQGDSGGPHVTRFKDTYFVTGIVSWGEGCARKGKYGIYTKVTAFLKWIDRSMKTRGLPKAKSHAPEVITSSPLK
T2 sequence (P00742 41-179 partner limits assumed): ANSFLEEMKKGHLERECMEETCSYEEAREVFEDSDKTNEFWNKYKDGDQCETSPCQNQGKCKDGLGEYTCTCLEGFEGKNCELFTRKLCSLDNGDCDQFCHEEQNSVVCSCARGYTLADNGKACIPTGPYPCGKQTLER
T1 sequence (P00742 235-488 limits assumed): as the sequence (P00742 235-488 limits assumed) above
T1 sequence (P00742 41-179 partner limits assumed): as the sequence (P00742 41-179 partner limits assumed) above
Chain of plasmin (PL) (P00747 581-810 limits assumed, species assumed): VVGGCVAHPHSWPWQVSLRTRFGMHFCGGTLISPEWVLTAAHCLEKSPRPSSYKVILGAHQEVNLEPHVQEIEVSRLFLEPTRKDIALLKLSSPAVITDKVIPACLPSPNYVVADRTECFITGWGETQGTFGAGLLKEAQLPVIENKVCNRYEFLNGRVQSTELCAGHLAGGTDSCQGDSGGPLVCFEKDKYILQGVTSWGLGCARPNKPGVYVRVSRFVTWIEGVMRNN
Chain of plasmin (PL) (P00747 97-580 partner limits assumed, species assumed): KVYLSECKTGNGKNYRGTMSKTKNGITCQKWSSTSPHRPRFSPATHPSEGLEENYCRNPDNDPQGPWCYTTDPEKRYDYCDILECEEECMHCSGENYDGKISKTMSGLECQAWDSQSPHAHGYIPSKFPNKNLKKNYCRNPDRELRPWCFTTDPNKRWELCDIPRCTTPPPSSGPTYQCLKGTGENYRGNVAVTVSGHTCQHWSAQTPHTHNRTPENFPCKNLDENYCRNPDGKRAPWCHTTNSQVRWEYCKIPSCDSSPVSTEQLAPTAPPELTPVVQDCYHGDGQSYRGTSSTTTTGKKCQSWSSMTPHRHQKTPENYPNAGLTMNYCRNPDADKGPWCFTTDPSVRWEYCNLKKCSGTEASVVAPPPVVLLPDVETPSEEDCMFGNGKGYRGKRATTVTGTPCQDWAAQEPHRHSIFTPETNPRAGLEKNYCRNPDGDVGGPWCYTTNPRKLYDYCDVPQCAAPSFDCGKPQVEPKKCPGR
Chain of tissue plasminogen activator (tPA) (P00750 36-562, species assumed): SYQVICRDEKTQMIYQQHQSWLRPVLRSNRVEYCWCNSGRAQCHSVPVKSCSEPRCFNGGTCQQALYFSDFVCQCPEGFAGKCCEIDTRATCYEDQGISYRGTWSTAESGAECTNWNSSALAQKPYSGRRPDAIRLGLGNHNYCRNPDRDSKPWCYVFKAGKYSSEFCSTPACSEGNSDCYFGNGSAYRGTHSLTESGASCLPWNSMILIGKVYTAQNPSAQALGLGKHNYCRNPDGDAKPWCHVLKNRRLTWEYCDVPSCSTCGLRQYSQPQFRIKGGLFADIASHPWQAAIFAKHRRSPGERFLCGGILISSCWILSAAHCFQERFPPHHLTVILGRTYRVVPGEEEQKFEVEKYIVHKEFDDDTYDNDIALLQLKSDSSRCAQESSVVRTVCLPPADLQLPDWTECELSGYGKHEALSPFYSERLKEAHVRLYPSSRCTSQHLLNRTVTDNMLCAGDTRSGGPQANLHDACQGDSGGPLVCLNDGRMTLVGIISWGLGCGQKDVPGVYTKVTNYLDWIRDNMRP

| Structure (SMILES) | IC50 ([1]; Table 2, concentration prolonging clotting time twofold, read-out: A: anticoagulation IC50, PT) [nM] | B: relative efficiency, PL [2] | B: relative efficiency, tPA [3] | B: relative efficiency, UK [4] | TT relative clotting time [5] | PAI (%), percentual inhibition of platelet aggregation ([6]; 0 min) [%] | PAI (%), percentual inhibition of platelet aggregation ([6]; 30 min) [%] | PAI (%), percentual inhibition of platelet aggregation ([6]; 45 min) [%] | PAI (%), percentual inhibition of platelet aggregation ([6]; 60 min) [%] | PAI (%), percentual inhibition of platelet aggregation ([6]; 90 min) [%] | PAI (%), percentual inhibition of platelet aggregation ([6]; 120 min) [%] | PAI (%), percentual inhibition of platelet aggregation ([6]; 180 min) [%] | PAI (%), percentual inhibition of platelet aggregation ([6]; 240 min) [%] | antifibrinolytic effect in vivo [7] | IC50 [8] [nM] | IC50 ([1]; Table 3, twofold prolongation compared to control, read-out: A: anticoagulant IC50, PT) [nM] | IC50 [9] [nM] | IC50 [10] [nM] | IC50 [11] [nM] |
| --- | --- | --- | --- | --- | --- | --- | --- | --- | --- | --- | --- | --- | --- | --- | --- | --- | --- | --- | --- |
| CN[C@H](Cc1ccccc1)C(=O)N1CCC[C@H]1C(=O)N[C@H](C=O)CCCNC(=N)N [Example C1, D-MePhe-Pro-Arg-H, reference compound] | 2930 | 1.0 | 1.0 | 1.0 | 10.50 ± 4.59 | 1.0 | 52.8 ± 14.7 | 58.4 ± 15.6 | 54.2 ± 11.6 | 83.2 ± 8.9 | 75.2 ± 12.3 | 47.5 ± 20.9 | 32.2 ± 16.0 | insignificant |  |  |  |  |  |
| CC(C)OC(=O)N[C@H](CC1CCC1)C(=O)N1CCC[C@H]1C(=O)N[C@H](C=O)CCCNC(=N)N [Example 3, Isopropoxycarbonyl-3-cyclobutyl-D-alanyl-L-prolyl-L-arginine aldehyde] |  |  |  |  |  |  |  |  |  |  |  |  |  |  | 36 | 1700 | 600 | 190 | < 1000 |
